Numbered stars: 1 amine (or outer) side, 2 acyl side, 3 side chain; on linkers, the order of the positions; unused ones are H or OH. Bridge positions count the residues as written; N and C are the ends. Square brackets hold non-standard residues; d marks the D form. Ends that are not written are not given here. Peptide text beside a SMILES is read from it. X9 = O=C(C[C@H](C(=O)[*:2])C1CCCCC1)[C@@H]1CCCN1[*:1]; NMeW = CN[C@@H](Cc1c[nH]c2ccccc12)C(=O)O; X1 = O=C(C(N[*:1])C1CCc2ccccc2C1)[*:2]; mXylylene = c1cc(C[*:1])cc(C[*:2])c1; NMeY = CN[C@@H](Cc1ccc(O)cc1)C(=O)O; X2 = O=C(Cc1cccc(C[*:2])c1)[*:1]; Chg = N[C@H](C(=O)O)C1CCCCC1; Tle = CC(C)(C)[C@H](N)C(=O)O; NMeS = CN[C@@H](CO)C(=O)O; Mpa = O=C(O)CCS; Sar = CNCC(=O)O

The test deals with T1, human plasma kallikrein (Homo sapiens, UniProt P03952).
T1 construct: purchased Enzyme Research Laboratories HPKa 1303
T1 sequence (P03952 20-390 limits assumed): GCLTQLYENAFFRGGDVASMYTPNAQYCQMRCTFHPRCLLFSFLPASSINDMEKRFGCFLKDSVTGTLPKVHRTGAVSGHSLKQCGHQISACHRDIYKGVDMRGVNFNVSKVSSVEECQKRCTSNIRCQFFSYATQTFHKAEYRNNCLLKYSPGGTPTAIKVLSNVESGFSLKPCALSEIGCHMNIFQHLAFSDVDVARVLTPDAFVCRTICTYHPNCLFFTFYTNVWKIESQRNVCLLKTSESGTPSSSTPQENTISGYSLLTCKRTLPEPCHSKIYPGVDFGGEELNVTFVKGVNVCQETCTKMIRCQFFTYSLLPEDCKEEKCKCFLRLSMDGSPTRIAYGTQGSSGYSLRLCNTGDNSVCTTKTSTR
T1 sequence (P03952 391-638 limits assumed): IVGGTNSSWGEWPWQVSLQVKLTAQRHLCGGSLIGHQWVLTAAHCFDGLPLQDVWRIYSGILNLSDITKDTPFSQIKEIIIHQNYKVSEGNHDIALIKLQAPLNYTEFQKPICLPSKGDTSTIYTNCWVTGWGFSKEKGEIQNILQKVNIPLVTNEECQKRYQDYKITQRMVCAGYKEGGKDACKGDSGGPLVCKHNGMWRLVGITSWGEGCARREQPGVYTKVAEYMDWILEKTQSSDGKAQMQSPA
Put plainly: Enzyme inhibition assay (fluorogenic substrate H-Pro-Phe-Arg-AMC). Format: biochemical. Particulars: Kallikrein inhibitory activity; 1 nM activated human kallikrein, 500 μM H-Pro-Phe-Arg-AMC, 1 hour room temperature; read-out: Avg. IC50. Summed up:
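IC50 was determined from AMC fluorescence (ex 360/em 460 nm) after 1 h of reaction at room temperature with 500 μM final substrate. Before this, peptides in ten 8-fold serial dilutions were incubated 5 min with 1 nM final activated kallikrein. The buffer was Tris-HCl pH 7.2 containing NaCl, CaCl2 and Brij-35.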
Turning to `CC(=O)N[C@@H](CS)C(=O)N[C@@H](CC(N)=O)C(=O)N[C@@H](Cc1ccc(O)cc1)C(=O)N[C@@H](Cc1c[nH]c2ccccc12)C(=O)N[C@@H](CO)C(=O)N1CCC[C@H]1C(=O)N(C)[C@@H](Cc1c[nH]c2ccccc12)C(=O)N[C@H](C(=O)N[C@@H](C)C(=O)N[C@@H](CS)C(N)=O)[C@@H](C)O` [Compound R2236, Ac-CNYWSP-nMeW-TAC-NH2] (Ac-CNYWSP[NMeW]TAC-NH2), the concentration for half-maximal inhibition (IC50) – broadly, the concentration that inhibits the measured activity by half – was over 4.9 µM.
On to `CC(=O)N[C@@H](CS)C(=O)N[C@@H](CC(N)=O)C(=O)N[C@@H](Cc1ccc(O)cc1)C(=O)N[C@@H](Cc1c[nH]c2ccccc12)C(=O)N(C)[C@@H](CO)C(=O)N1CCC[C@H]1C(=O)N[C@@H](Cc1c[nH]c2ccccc12)C(=O)N[C@H](C(=O)N[C@@H](C)C(=O)N[C@@H](CS)C(N)=O)[C@@H](C)O` [Compound R2237, Ac-CNYW-nMeS-PWTAC-NH2] (Ac-CNYW[NMeS]PWTAC-NH2), for which the IC50 was over 13.9 µM.
As for `CC(=O)N[C@@H](CS)C(=O)N[C@@H](CC(N)=O)C(=O)N[C@@H](Cc1ccc(O)cc1)C(=O)N(C)[C@@H](Cc1c[nH]c2ccccc12)C(=O)N[C@@H](CO)C(=O)N1CCC[C@H]1C(=O)N[C@@H](Cc1c[nH]c2ccccc12)C(=O)N[C@H](C(=O)N[C@@H](C)C(=O)N[C@@H](CS)C(N)=O)[C@@H](C)O` [Compound R2238, Ac-CNY-nMeW-SPWTAC-NH2] (Ac-CNY[NMeW]SPWTAC-NH2), the figure is over 4.52 µM; as for `CC(=O)N[C@@H](CS)C(=O)N[C@@H](CC(N)=O)C(=O)N(C)[C@@H](Cc1ccc(O)cc1)C(=O)N[C@@H](Cc1c[nH]c2ccccc12)C(=O)N[C@@H](CO)C(=O)N1CCC[C@H]1C(=O)N[C@@H](Cc1c[nH]c2ccccc12)C(=O)N[C@H](C(=O)N[C@@H](C)C(=O)N[C@@H](CS)C(N)=O)[C@@H](C)O` [Compound R2239, Ac-CN-nMeY-WSPWTAC-NH2] (Ac-CN[NMeY]WSPWTAC-NH2), over 12.5 µM; as for `CC[C@@H](C)[C@@H]1NC(=O)CCCCCCC/C=C/C[C@@H](C(=O)N[C@@H](CCCNC(=N)N)C(=O)N[C@H](C(N)=O)C(C)C)NC1=O` [Compound R2240], over 75 µM.
`CC[C@@H](C)[C@@H]1NC(=O)CCCCCC/C=C/C[C@@H](C(=O)N[C@@H](CCCNC(=N)N)C(=O)N[C@H](C(N)=O)C(C)C)NC1=O` [Compound R2241]: the IC50 is over 75 µM.
Turning to `CC[C@@H](C)[C@@H]1NC(=O)CCCCC/C=C/C[C@@H](C(=O)N[C@@H](CCCNC(=N)N)C(=O)N[C@H](C(N)=O)C(C)C)NC1=O` [Compound R2242], the half-maximal inhibitory concentration (IC50) is over 100 µM.
Take `CC[C@@H](C)[C@@H]1NC(=O)[C@@H]2CCCN2C(=O)CCCCCCCC/C=C/C[C@@H](C(=O)N[C@@H](CCCNC(=N)N)C(=O)N[C@H](C(N)=O)C(C)C)NC1=O` [Compound R2243]: the IC50 is over 50 µM.
As for `CC[C@@H](C)[C@@H]1NC(=O)[C@@H]2CCCN2C(=O)CCCCCCC/C=C/C[C@@H](C(=O)N[C@@H](CCCNC(=N)N)C(=O)N[C@H](C(N)=O)C(C)C)NC1=O` [Compound R2244], the figure is over 50 µM; as for `CC[C@@H](C)[C@@H]1NC(=O)[C@@H]2CCCN2C(=O)CCCCCC/C=C/C[C@@H](C(=O)N[C@@H](CCCNC(=N)N)C(=O)N[C@H](C(N)=O)C(C)C)NC1=O` [Compound R2245], over 50 µM.
For the compound `CC[C@@H](C)[C@@H]1NC(=O)[C@@H]2CCCN2C(=O)CCCCC/C=C/C[C@@H](C(=O)N[C@@H](CCCNC(=N)N)C(=O)N[C@H](C(N)=O)C(C)C)NC1=O` [Compound R2246], the IC50 was over 50 µM.
As for `CC(C)(C)[C@H](NC(=O)[C@H](CCCNC(=N)N)NC(=O)[C@@H]1CSCc2cccc(c2)CSCCC(=O)N2CCC[C@H]2C(=O)C[C@@H](C2CCCCC2)C(=O)N1)C(N)=O` [Compound R2247] ([Mpa][X9]CR[Tle]-NH2; linker 1-3 via mXylylene), the IC50 was determined as 0.474 µM.
`CC(C)(C)[C@H](NC(=O)[C@H](CCCNC(=N)N)NC(=O)[C@@H]1CCCn2cc(nn2)CCCCC(=O)N2CCC[C@H]2C(=O)N[C@@H](C2CCCCC2)C(=O)N1)C(N)=O` [Compound R2248]: the IC50 is over 100 µM.
`CC(C)(C)[C@H](NC(=O)[C@H](CCCNC(=N)N)NC(=O)[C@@H]1CCn2cc(nn2)CCCCC(=O)N2CCC[C@H]2C(=O)N[C@@H](C2CCCCC2)C(=O)N1)C(N)=O` [Compound R2249]: the 50% inhibitory concentration (IC50) was over 100 µM.
`CC(C)(C)[C@H](NC(=O)[C@H](CCCNC(=N)N)NC(=O)[C@@H]1CCCn2cc(nn2)CCCCCC(=O)N2CCC[C@H]2C(=O)N[C@@H](C2CCCCC2)C(=O)N1)C(N)=O` [Compound R2250]: the IC50 is over 100 µM.
As for `CC(C)(C)[C@H](NC(=O)[C@H](CCCNC(=N)N)NC(=O)[C@@H]1CCn2cc(nn2)CCCCCC(=O)N2CCC[C@H]2C(=O)N[C@@H](C2CCCCC2)C(=O)N1)C(N)=O` [Compound R2251], the figure is over 100 µM.
Take `CC(C)(C)[C@H](NC(=O)[C@H](CCCNC(=N)N)NC(=O)[C@@H]1COCc2cn(nn2)CCCCC(=O)N2CCC[C@H]2C(=O)N[C@@H](C2CCCCC2)C(=O)N1)C(N)=O` [Compound R2252]: the IC50 was over 100 µM.
As for `CC(C)(C)[C@H](NC(=O)[C@H](CCCNC(=N)N)NC(=O)[C@@H]1CCCc2cn(nn2)CCCCC(=O)N2CCC[C@H]2C(=O)N[C@@H](C2CCCCC2)C(=O)N1)C(N)=O` [Compound R2253], the IC50 was over 100 µM.
On to `CC(C)(C)[C@H](NC(=O)[C@H](CCCNC(=N)N)NC(=O)[C@@H]1CCc2cn(nn2)CCCCCC(=O)N2CCC[C@H]2C(=O)N[C@@H](C2CCCCC2)C(=O)N1)C(N)=O` [Compound R2254], for which the IC50 was over 100 µM.
For `CC(C)(C)[C@H](NC(=O)[C@H](CCCNC(=N)N)NC(=O)[C@@H]1COc2cccc(c2)OCCCC(=O)N2CCC[C@H]2C(=O)N[C@@H](C2CCCCC2)C(=O)N1)C(N)=O` [Compound R2255], the IC50 was over 25 µM.
As for `CC(C)(C)[C@H](NC(=O)[C@H](CCCNC(=N)N)NC(=O)[C@@H]1CCOc2cccc(c2)OCCCC(=O)N2CCC[C@H]2C(=O)N[C@@H](C2CCCCC2)C(=O)N1)C(N)=O` [Compound R2256], the figure is over 100 µM.
As for `CN1CC(=O)N2CCC[C@H]2C(=O)N[C@@H](C2CCCCC2)C(=O)N[C@H](C(=O)N[C@@H](CCCNC(=N)N)C(=O)N[C@H](C(N)=O)C(C)(C)C)CSCc2cccc(c2)CC1=O` [Compound R2257] ([Sar]P[Chg]CR[Tle]-NH2; linker N-4 via X2), the figure is 0.383 µM.
On to `CC(C)(C)[C@H](NC(=O)[C@H](CCCNC(=N)N)NC(=O)[C@@H]1CSCc2cccc(c2)CC(=O)NCCC(=O)N2CCC[C@H]2C(=O)N[C@@H](C2CCCCC2)C(=O)N1)C(N)=O` [Compound R2258], for which the IC50 stood at 0.498 µM.
As for `CC(C)(C)[C@H](NC(=O)[C@H](CCCNC(=N)N)NC(=O)[C@@H]1CSCc2cccc(c2)/C=C/CC(=O)N2CCC[C@H]2C(=O)N[C@@H](C2CCCCC2)C(=O)N1)C(N)=O` [Compound R2259], the figure is 1.46 µM; as for `CC(C)(C)[C@H](NC(=O)[C@H](CCCNC(=N)N)NC(=O)[C@@H]1CSCc2cccc(c2)/C=C/CCC(=O)N2CCC[C@H]2C(=O)N[C@@H](C2CCCCC2)C(=O)N1)C(N)=O` [Compound R2260], 4.68 µM.
As to `CC(C)(C)[C@H](NC(=O)[C@H](CCCNC(=N)N)NC(=O)[C@@H]1CSCc2cccc(c2)C/C=C/CC(=O)N2CCC[C@H]2C(=O)N[C@@H](C2CCCCC2)C(=O)N1)C(N)=O` [Compound R2261], the IC50 was determined as 0.164 µM.
For the compound `CC(C)(C)[C@H](NC(=O)[C@H](CCCNC(=N)N)NC(=O)[C@@H]1C/C=C/c2cccc(c2)OCCCC(=O)N2CCC[C@H]2C(=O)N[C@@H](C2CCCCC2)C(=O)N1)C(N)=O` [Compound R2262], the IC50 is over 100 µM.
`CC(C)(C)[C@H](NC(=O)[C@H](CCCNC(=N)N)NC(=O)[C@@H]1CCCc2cccc(c2)OCCCC(=O)N2CCC[C@H]2C(=O)N[C@@H](C2CCCCC2)C(=O)N1)C(N)=O` [Compound R2263]: the IC50 was over 100 µM.
On to `CC(C)(C)[C@H](NC(=O)[C@H](CCCNC(=N)N)NC(=O)[C@@H]1CSCc2cccc(c2)CC(=O)N[C@@H](CCC(=O)O)C(=O)N2CCC[C@H]2C(=O)N[C@@H](C2CCCCC2)C(=O)N1)C(N)=O` [Compound R2264] (EP[Chg]CR[Tle]-NH2; linker N-4 via X2), for which the IC50 is 1.1 µM.
For the compound `CC(C)(C)[C@H](NC(=O)[C@H](CCCNC(=N)N)NC(=O)[C@@H]1CSCc2cccc(c2)CC(=O)NCC(=O)N2CCC[C@H]2C(=O)N[C@@H](C2CCCCC2)C(=O)N1)C(N)=O` [Compound R2265] (GP[Chg]CR[Tle]-NH2; linker N-4 via X2), the IC50 came out at 0.0392 µM.
As for `CC(C)(C)[C@H](NC(=O)[C@H](CCCNC(=N)N)NC(=O)[C@@H]1CSCc2cccc(c2)CSCCC(=O)N2CCC[C@H]2C(=O)NC(C2CCc3ccccc3C2)C(=O)N1)C(N)=O` (some centres unmarked) [Compound R2266] ([Mpa]P[X1]CR[Tle]-NH2; linker 1-4 via mXylylene), the IC50 is 0.118 µM.
The figure for `CC(C)(C)[C@H](NC(=O)[C@H](CCCNC(=N)N)NC(=O)[C@@H]1CSCc2cccc(c2)CSCCC(=O)N2CCC[C@H]2C(=O)NC(C2CCc3ccccc3C2)C(=O)N1)C(N)=O` (some centres unmarked) [Compound R2267] ([Mpa]P[X1]CR[Tle]-NH2; linker 1-4 via mXylylene) is 0.0128 µM.
Turning to “Ac-ANYWSPWTAA-NH2 [Compound R2145, Ac-ANYWSPWTAA-NH2]”, the IC50 is 0.0588 µM.
As for “Ac-CNYWSPWTEA-NH2 [Compound R2127, Ac-CNYWSPWTEA-NH2]”, the concentration for half-maximal inhibition (IC50) turned out to be 0.0356 µM.
“Ac-SPWTECSA-NH2 [Compound R2120, Ac-SPWTECSA-NH2]”: the IC50 was over 100 µM.
In the case of “Ac-WSPWTECSA-NH2 [Compound R2119, Ac-WSPWTECSA-NH2]”, the concentration for half-maximal inhibition (IC50) is over 100 µM.
For the compound “Ac-YWSPWTECSA-NH2 [Compound R2118, Ac-YW SPWTECSA-NH2]”, the IC50 was over 100 µM.
“MCNYWSP-NH2 [Compound R2115, MCNYWSP-NH2]”: the IC50 is over 17.3 µM.

The values are drawn from patent publication US9999650B2, “Peptide and peptidomimetic inhibitors” (Ra Pharmaceuticals, Inc., priority 2012, dated 2018).
